Test results taken from BindingDB's records for doi:10.1016/j.bmcl.2007.03.028 (Merck Frosst Centre For Therapeutic Research, 2007).
Several values for one entry are separate records, joined by “and”; a condition that tells them apart may be missing. Equal entries are not always repeated.

Biological target: T1, Cathepsin K (Oryctolagus cuniculus, UniProt P43236)
T1 sequence (P43236 whole entry): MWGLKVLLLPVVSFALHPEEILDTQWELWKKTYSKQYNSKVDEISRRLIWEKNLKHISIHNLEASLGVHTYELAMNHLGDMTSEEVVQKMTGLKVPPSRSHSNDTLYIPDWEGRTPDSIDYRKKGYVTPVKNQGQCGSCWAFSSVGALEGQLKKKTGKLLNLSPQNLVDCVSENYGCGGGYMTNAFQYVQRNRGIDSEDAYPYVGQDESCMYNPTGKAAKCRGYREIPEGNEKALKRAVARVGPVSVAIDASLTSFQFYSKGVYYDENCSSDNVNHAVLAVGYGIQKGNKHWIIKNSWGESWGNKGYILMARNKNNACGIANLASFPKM
Assay: In Vitro Enzyme Inhibition Assay and Bone-Resorption Assay
Settings: pH 5.5; 22 °C
Experimental: Prior to the addition of substrate, different concentrations of the inhibitor ranging from 100 uM to 0.2 nM were preincubated for 15 min with enzyme to allow the establishment of the enzyme-inhibitor complex. The proteolytic cleavage of N-acyl aminocoumarins by cathepsins was conducted in 96-well plate format and the plate read using a Spectramax (Molecular Devices) plate reader. The excitation wavelength was 355 nm and the emission wavelength was 460 nm for peptidyl-AMC substrates. The percent inhibition of the reaction was calculated from a control reaction containing only vehicle. IC50 curves were generated by fitting percent inhibition values to a four parameter logistic model (SOFTMAX PRO, Molecular Devices). EC50/IC50 values were obtained from bone-resorption assay. The long bones were aseptically isolated from a 10-day-old New Zealand White […] (Covance Research Products, Denver, PA) and the soft tissue removed.

EC50 | SMILES
0.033 µM | CSc1ccc(-c2c([C@@H]3CCC(F)(F)C[C@H]3C(=O)NCC#N)nnn2Cc2ccccc2)cc1 [(1R,2R)-2-{1-benzyl-5-[4-(methylsulfanyl)phenyl]-1H-1,2,3-triazol-4-yl}-N-(cyanomethyl)-5,5-difluorocyclohexane-1-carboxamide]
0.041 µM | CSc1ccc(-c2cn(C)nc2[C@@H]2CCC(F)(F)C[C@H]2C(=O)NCC#N)cc1
0.018 µM | CSc1ccc(-c2cnccc2[C@@H]2CCC(F)(F)C[C@H]2C(=O)NCC#N)cc1 [(1R,2R)-N-(cyanomethyl)-5,5-difluoro-2-{3-[4-(methylsulfanyl)phenyl]pyridin-4-yl}cyclohexane-1-carboxamide]
0.075 µM | CSc1ccc(-c2c[n+]([O-])ccc2[C@@H]2CCC(F)(F)C[C@H]2C(=O)NCC#N)cc1 [4-[(1R,2R)-2-[(cyanomethyl)carbamoyl]-4,4-difluorocyclohexyl]-3-[4-(methylsulfanyl)phenyl]-1-pyridin-1-olate]
0.016 µM and 0.038 µM | CSc1ccc(-c2ccccc2[C@@H]2CCC(F)(F)C[C@H]2C(=O)NCC#N)cc1 [(1R,2R)-N-(cyanomethyl)-5,5-difluoro-2-{2-[4-(methylsulfanyl)phenyl]phenyl}cyclohexane-1-carboxamide]
0.01 µM | CSc1ccc(-c2ncccc2[C@@H]2CCC(F)(F)C[C@H]2C(=O)NCC#N)cc1 [(1R,2R)-N-(cyanomethyl)-5,5-difluoro-2-{2-[4-(methylsulfanyl)phenyl]pyridin-3-yl}cyclohexane-1-carboxamide]
0.017 µM | CSc1ccc(-c2nc(C)sc2[C@@H]2CCC(F)(F)C[C@H]2C(=O)NCC#N)cc1 [(1R,2R)-N-(cyanomethyl)-5,5-difluoro-2-{2-methyl-4-[4-(methylsulfanyl)phenyl]-1,3-thiazol-5-yl}cyclohexane-1-carboxamide]
0.084 µM | CSc1ccc(-c2c([C@@H]3CCC(F)(F)C[C@H]3C(=O)NCC#N)cc[nH]c2=O)cc1 [(1R,2R)-N-(cyanomethyl)-5,5-difluoro-2-{3-[4-(methylsulfanyl)phenyl]-2-oxo-1,2-dihydropyridin-4-yl}cyclohexane-1-carboxamide]
0.058 µM | N#CCNC(=O)[C@@H]1CC(F)(F)CC[C@H]1c1cnccc1-c1ccc(SCF)cc1 [(1R,2R)-N-(cyanomethyl)-5,5-difluoro-2-(4-{4-[(fluoromethyl)sulfanyl]phenyl}pyridin-3-yl)cyclohexane-1-carboxamide]
0.02 µM | CSc1ccc(-c2c[nH]c(=O)cc2[C@@H]2CCC(F)(F)C[C@H]2C(=O)NCC#N)cc1 [(1R,2R)-N-(cyanomethyl)-5,5-difluoro-2-{5-[4-(methylsulfanyl)phenyl]-2-oxo-1,2-dihydropyridin-4-yl}cyclohexane-1-carboxamide]
